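These data come from cells grown in 96-well plates and exposed to compound for 48 hours at five concentrations. Here, GI50 denotes the concentration required for 50% inhibition of growth. TGI: concentration producing complete growth inhibition.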
Experiments:
Experiment in all cases: NCI anticancer screen, dose series, 48 h
SF-268 CNS = tested on: SF-268 CNS
A549 NSCLC = tested on: A549 NSCLC
K-562 leukemia = tested on: K-562 leukemia
KM12 colon = tested on: KM12 colon
EKVX NSCLC = tested on: EKVX NSCLC
MDA-MB-435 = tested on: MDA-MB-435
SNB-19 CNS = tested on: SNB-19 CNS
MCF7 breast = tested on: MCF7 breast
A498 renal = tested on: A498 renal
IGROV1 ovarian = tested on: IGROV1 ovarian
COLO 205 colon = tested on: COLO 205 colon
OVCAR-8 ovarian = tested on: OVCAR-8 ovarian
NCI/ADR-RES ovarian = tested on: NCI/ADR-RES ovarian
UACC-257 melanoma = tested on: UACC-257 melanoma
M14 melanoma = tested on: M14 melanoma
MOLT-4 leukemia = tested on: MOLT-4 leukemia
BT-549 breast = tested on: BT-549 breast

| Compound | TGI (SF-268 CNS) | TGI (A549 NSCLC) | TGI (K-562 leukemia) | TGI (KM12 colon) | TGI (EKVX NSCLC) | TGI (MDA-MB-435) | TGI (SNB-19 CNS) | TGI (MCF7 breast) | TGI (A498 renal) | TGI (IGROV1 ovarian) | TGI (COLO 205 colon) | TGI (OVCAR-8 ovarian) | TGI (NCI/ADR-RES ovarian) | TGI (UACC-257 melanoma) | TGI (M14 melanoma) | TGI (MOLT-4 leukemia) | GI50 (SF-268 CNS) | GI50 (EKVX NSCLC) | GI50 (BT-549 breast) |
| --- | --- | --- | --- | --- | --- | --- | --- | --- | --- | --- | --- | --- | --- | --- | --- | --- | --- | --- | --- |
| CC(=O)OCC(=O)OC[C@H](OCc1ccccc1)[C@@H]1[C@H](OC(C)=O)C(=O)N1Cc1ccccc1 | > 100 µM | > 100 µM | > 100 µM | > 100 µM | > 100 µM | > 100 µM | > 100 µM | > 100 µM | > 100 µM | > 100 µM | > 100 µM | > 100 µM | > 100 µM | > 100 µM | > 100 µM | > 100 µM | – | – | – |
| CC(=O)NC(NCCN)(c1ccccc1)c1ccccc1 | > 100 µM | > 100 µM | > 100 µM | > 100 µM | > 100 µM | > 100 µM | > 100 µM | > 100 µM | > 100 µM | – | > 100 µM | > 100 µM | > 100 µM | > 100 µM | > 100 µM | > 100 µM | – | – | – |
| O=C1CC(CC(=O)c2ccc(Br)cc2)C(=O)/C1=C(/O)c1ccc(Br)cc1 (stereo unspecified) | > 100 µM | > 100 µM | > 100 µM | > 100 µM | > 100 µM | > 100 µM | > 100 µM | > 100 µM | > 100 µM | > 100 µM | > 100 µM | > 100 µM | > 100 µM | > 100 µM | > 100 µM | > 100 µM | – | – | – |
| CC(C)(Cl)C(Br)CCC(Br)(CCl)C(Cl)CBr (stereo unspecified) | – | – | > 10 µM | > 10 µM | > 10 µM | > 10 µM | > 10 µM | > 10 µM | > 10 µM | > 10 µM | > 10 µM | > 10 µM | > 10 µM | > 10 µM | > 10 µM | > 10 µM | – | – | – |
| COc1cc2c(c(OC)c1OC)-c1ccc(SC)c(=O)cc1[C@@H](O)CC2 | – | > 100 µM | > 100 µM | – | – | – | – | > 100 µM | – | – | – | – | 0.302 µM | > 100 µM | – | > 100 µM | 15.3 nM | > 100 µM | 98.4 µM |
| O=C(c1ccc(Cl)cc1)c1ccc(OCCCOc2ccc(C(=O)c3ccc(Cl)cc3)cc2Cl)c(Cl)c1 | – | > 100 µM | > 100 µM | > 100 µM | > 100 µM | – | > 100 µM | – | – | > 100 µM | > 100 µM | > 100 µM | – | > 100 µM | > 100 µM | > 100 µM | – | – | – |
| [B-][P+](CC[P+]1([B-])[C@@H](C)[C@@H](O)[C@H](O)[C@@H]1C)(c1ccccc1)c1ccccc1OC (stereo partly specified) | 32.8 µM | 28.8 µM | 70.8 µM | 33.1 µM | 25 µM | 30.4 µM | 30.9 µM | 35.6 µM | 32 µM | 31.3 µM | 32.6 µM | 31.5 µM | 35.9 µM | 20.3 µM | 34 µM | 41.7 µM | – | – | – |
| CC(=O)OCC1OC(n2c3c(c(-c4ccc(Cl)cc4)c(C#N)c2=S)CCCC3)C(OC(C)=O)C(OC(C)=O)C1OC(C)=O (stereo unspecified) | > 100 µM | > 100 µM | > 100 µM | > 100 µM | – | > 100 µM | > 100 µM | > 100 µM | 79.3 µM | > 100 µM | > 100 µM | > 100 µM | > 100 µM | > 100 µM | > 100 µM | > 100 µM | – | – | – |
| O=C1NN(Cc2ccccc2)C(=O)N2CCC[C@@H]12 | > 100 µM | > 100 µM | – | > 100 µM | > 100 µM | > 100 µM | > 100 µM | > 100 µM | > 100 µM | > 100 µM | > 100 µM | > 100 µM | > 100 µM | > 100 µM | > 100 µM | > 100 µM | – | – | – |
| Nc1ncnc2c1ncn2C1CCC(CP(=O)(O)O)C1 (stereo unspecified) | > 100 µM | > 100 µM | – | > 100 µM | > 100 µM | > 100 µM | > 100 µM | > 100 µM | – | > 100 µM | > 100 µM | > 100 µM | > 100 µM | > 100 µM | > 100 µM | – | – | – | – |
| S=c1ncc2c([nH]1)C1c3ccccc3C2c2ccccc21 | > 100 µM | > 100 µM | > 100 µM | > 100 µM | > 100 µM | – | > 100 µM | – | – | > 100 µM | > 100 µM | > 100 µM | – | – | > 100 µM | > 100 µM | – | – | – |
| COc1nc(N)c(NC(C)=O)c(=O)n1C | > 100 µM | > 100 µM | > 100 µM | > 100 µM | > 100 µM | – | > 100 µM | – | > 100 µM | > 100 µM | > 100 µM | > 100 µM | – | > 100 µM | > 100 µM | > 100 µM | – | – | – |
| CCOc1ccccc1N=Nc1c(-c2ccccc2)nn(C(=O)CC(=O)Nc2cccc(C)c2)c1-c1ccccc1 | > 100 µM | > 100 µM | > 100 µM | > 100 µM | > 100 µM | – | > 100 µM | – | – | > 100 µM | > 100 µM | > 100 µM | – | > 100 µM | > 100 µM | > 100 µM | – | – | – |
| COc1ccc2c(c1)CCCN1CCc3ccccc3C21 (stereo unspecified) | > 100 µM | > 100 µM | > 100 µM | > 100 µM | > 100 µM | 43.2 µM | > 100 µM | > 100 µM | > 100 µM | > 100 µM | 59.3 µM | > 100 µM | 49.5 µM | > 100 µM | 51.5 µM | > 100 µM | – | – | – |
| C/C=C1\CN2CCc3c([nH]c4ccccc34)C2CC1CCO (stereo unspecified) | > 100 µM | > 100 µM | > 100 µM | > 100 µM | > 100 µM | – | > 100 µM | – | > 100 µM | > 100 µM | > 100 µM | > 100 µM | – | > 100 µM | > 100 µM | > 100 µM | – | – | – |
| COc1cc(OC)cc(-c2cc(=O)c3cc4c(cc3[nH]2)OCO4)c1 | 38.6 µM | 45.1 µM | > 50.2 µM | – | > 100 µM | – | 72.5 µM | – | – | 18.2 µM | 0.471 µM | 9.55 µM | – | > 100 µM | > 48.1 µM | > 51 µM | – | – | – |

Reference: PubChem BioAssay (NCI)
